# Measurements reported in patent publication EP4729529A1, “PREPARATION OF PEPTIDE INHIBITOR OF INTERLEUKIN-23 RECEPTOR AND USE THEREOF” (Xizang Haisco Pharmaceutical Co., Ltd., priority 2023, dated 2024).
# pIC50: −log10 of the molar value. Starred links: 1 amine or outer side, 2 acyl side, 3 side chain; linkers in the order of their positions; H or OH if unused. Positions of bridges follow the written chain, without caps; N, C: chain ends. Non-standard residues stand in square brackets, D forms with d. Residues, ends and D or L forms follow the SMILES beside them. Groups on a side chain read outwards from the residue. *: point of attachment. Phe(4-OC2H4NH2,2,3-(CH2)3) = NCCOc1ccc(C[C@H](N)C(=O)O)c2c1CCC2; Trp(7-cPr) = N[C@@H](Cc1c[nH]c2c(C3CC3)cccc12)C(=O)O; NH(CH2CH2O)4CH2CO = O=C(COCCOCCOCCOCCN[*:1])[*:2]; Trp(7-Me) = Cc1cccc2c(C[C@H](N)C(=O)O)c[nH]c12; C18 diacid = O=C(O)CCCCCCCCCCCCCCCCC(=O)*; X6 = COCCOCCOCCOCCOCCOCCOCCOCCOCCOCC(=O)*; γGlu = O=C(O)[C@H](CCC(=O)[*:2])N[*:1]; 2Nal = N[C@@H](Cc1ccc2ccccc2c1)C(=O)O; X1 = O=C(C(N[*:1])C1(S[*:3])CC1)[*:2]; X3 = C(c1nc(C[*:2])nc(C[*:3])n1)[*:1]; Thp(SO2) = NC1(C(=O)O)CCS(=O)(=O)CC1; mXylylene = c1cc(C[*:1])cc(C[*:2])c1; oXylylene = c1ccc(C[*:2])c(C[*:1])c1; AEF = NCCOc1ccc(C[C@H](N)C(=O)O)cc1; Adipoyl = O=C(CCCCC(=O)[*:2])[*:1]; 3Pal = N[C@@H](Cc1cccnc1)C(=O)O; Pen = CC(C)(S)[C@H](N)C(=O)O; Thp = NC1(C(=O)O)CCOCC1; Dap = NC[C@H](N)C(=O)O; AEEA = NCCOCCOCC(=O)O; CO = O=C([*:1])[*:2]; AEA = NCCOCC(=O)O; Sar = CNCC(=O)O
# Target: T1, IL-23α/IL-12β and IL-23R (Homo sapiens, UniProt Q5VWK5)
# T1 construct: purchased ACRO ILR-H82F3 (IL-23R); ILB-H52W5 (IL-23α/IL-12β)
# T1 sequence (Q5VWK5 24-353 limits assumed): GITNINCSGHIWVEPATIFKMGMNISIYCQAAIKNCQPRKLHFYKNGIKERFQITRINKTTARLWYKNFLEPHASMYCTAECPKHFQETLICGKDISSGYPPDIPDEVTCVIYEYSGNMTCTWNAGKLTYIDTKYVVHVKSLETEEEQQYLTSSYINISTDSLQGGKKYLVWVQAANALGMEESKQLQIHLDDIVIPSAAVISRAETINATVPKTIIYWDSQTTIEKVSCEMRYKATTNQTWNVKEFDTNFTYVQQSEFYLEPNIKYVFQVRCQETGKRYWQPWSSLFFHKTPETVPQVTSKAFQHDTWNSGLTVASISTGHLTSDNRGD
# Experiment: IL-23α/IL-12β and IL-23R binding assay (TR-FRET/HTRF)
# Details: inhibition of the binding of IL-23α/IL-12β to IL-23R, TR-FRET; both proteins 0.3 nM
# Protocol: 1. IL-23α/IL-12β and IL-23R binding assay
# Compounds were tested for their inhibition on the binding of IL-23α/IL-12β to IL-23R by the TR-FRET method. Solutions of proteins IL-23α/IL-12β (ACRO, Cat# ILB-H52W5) and IL-23R (ACRO, Cat# ILR-H82F3) were prepared in reaction buffer PPI (PerkinElmer, Cat# 61DB10RDF). The final concentrations of IL-23α/IL-12β and IL-23R in the reaction mixture were both 0.3 nM. Positive reference Guselkumab was 3-fold diluted from an initial concentration of 30 nM, with 10 doses. 0.1 µL of the positive reference diluted in the reaction buffer was delivered to a 384-well plate (Grenier, Cat# 784075) by the acoustic liquid delivery technique (Echo 655), and the plate was centrifuged at 1000 rpm for 1 minute. 2.5 µL of IL-23α/IL-12β solution was transferred into the 384-well reaction plate, and the plate was centrifuged at 1000 rpm for 1 minute, and incubated at 25°C for 60 minutes. 2.5 µL of IL-23R solution was transferred into the 384-well reaction plate, and the plate was centrifuged at 1000 rpm for 1 minute. 5 µL of Streptavidin-Tb cryptate and Anti 6HIS-d2 detection mixture was transferred into the 384-well reaction plate, and the plate was centrifuged at 1000 rpm for 1 minute, and incubated at 25°C for 60 minutes. Finally, the HTRF signal (Ratio 665/620 nm) was read with a BMG high-throughput drug screening multifunctional microplate reader. IC50 values were obtained by nonlinear regression curve fitting using GraphPad Prism software.
row,Structure (SMILES),pIC50
1,"CC(=O)NCCCC[C@@H]1NC(=O)[C@H](Cc2c[nH]c3c(C)cccc23)NC(=O)[C@H]([C@@H](C)O)NC(=O)[C@H](CC(N)=O)NC(=O)C(NC(C)=O)CCCC[C@@H](C(=O)N[C@@H](Cc2ccc(OCCN)cc2)C(=O)N[C@@H](Cc2ccc3ccccc3c2)C(=O)NC2(C(=O)N[C@@H](CCC(=O)O)C(=O)N[C@@H](CC(N)=O)C(=O)N[C@@H](Cc3cccnc3)C(=O)N(C)CC(N)=O)CCOCC2)NC1=O (single isomer, unassigned) [Compound 44-2]",9.87
2,CC(=O)NCCCC[C@@H]1NC(=O)[C@H](Cc2c[nH]c3c(C)cccc23)NC(=O)[C@H]([C@@H](C)O)NC(=O)[C@H](Cc2c[nH]cn2)NC(=O)[C@@H](NC(C)=O)CCCC[C@@H](C(=O)N[C@@H](Cc2ccc(OCCN)c3c2CCC3)C(=O)N[C@@H](Cc2ccc3ccccc3c2)C(=O)NC2(C(=O)N[C@@H](CCC(=O)O)C(=O)N[C@@H](CC(N)=O)C(=O)N[C@@H](Cc3cccnc3)C(=O)N(C)CC(N)=O)CCOCC2)NC1=O [Compound 52],10.00
3,Cc1cccc2c(C[C@@H]3NC(=O)[C@H]([C@@H](C)O)NC(=O)[C@H](Cc4c[nH]cn4)NC(=O)C4NC(=O)COCCOCCOCCOCCNC(=O)CC[C@@H](C(=O)N[C@@H](CC(N)=O)C(=O)N[C@@H](Cc5cccnc5)C(=O)N(C)CC(N)=O)NC(=O)C5(CCS(=O)(=O)CC5)NC(=O)[C@H](Cc5ccc6ccccc6c5)NC(=O)[C@H](Cc5ccc(OCCN)cc5)NC(=O)[C@@H](NC(=O)[C@H](CCC(N)=O)NC3=O)C(C)(C)SSC43CC3)c[nH]c12 [Compound 53] ([NH(CH2CH2O)4CH2CO][X1]HT[Trp(7-Me)]Q[Pen][AEF][2Nal][Thp(SO2)]EN[3Pal][Sar]-NH2; disulfide 2-7; lactam N-11),10.19
4,"CC(=O)NCCCC[C@@H]1NC(=O)[C@H](Cc2c[nH]c3c(C)cccc23)NC(=O)[C@H]([C@@H](C)O)NC(=O)[C@H](CC(N)=O)NC(=O)C(NC(C)=O)CCCC[C@@H](C(=O)N[C@@H](Cc2ccc(OCCN)cc2)C(=O)N[C@@H](Cc2ccc3ccccc3c2)C(=O)NC2(C(=O)N[C@@H](CCC(=O)O)C(=O)N[C@@H](CC(N)=O)C(=O)N[C@@H](Cc3cccnc3)C(=O)N(C)CC(N)=O)CCOCC2)NC1=O (single isomer, unassigned) [Compound 44-1]",9.84
5,CC(=O)NCCCC[C@@H]1NC(=O)[C@H](Cc2c[nH]c3c(C)cccc23)NC(=O)[C@H]([C@@H](C)O)NC(=O)[C@H](Cc2c[nH]cn2)NC(=O)[C@H]2NC(=O)COCCNC(=O)CC[C@@H](C(=O)N[C@@H](CC(N)=O)C(=O)N[C@@H](Cc3cccnc3)C(=O)N(C)CC(N)=O)NC(=O)C3(CCOCC3)NC(=O)[C@H](Cc3ccc4ccccc4c3)NC(=O)[C@H](Cc3ccc(OCCN)cc3)NC(=O)[C@@H](NC1=O)C(C)(C)SSC2(C)C [Compound 38] ([AEA][Pen]HT[Trp(7-Me)]K(Ac)[Pen][AEF][2Nal][Thp]EN[3Pal][Sar]-NH2; disulfide 2-7 (inferred); lactam N-11 (inferred)),9.67
6,"CC(=O)NC1C(=O)N[C@@H](Cc2c[nH]cn2)C(=O)N[C@@H]([C@@H](C)O)C(=O)N[C@@H](Cc2c[nH]c3c(C)cccc23)C(=O)N[C@@H](CCC(N)=O)C(=O)NC(C(=O)N[C@@H](Cc2ccc(OCCN)c3c2CCC3)C(=O)N[C@@H](Cc2ccc3ccccc3c2)C(=O)NC2(C(=O)N[C@@H](CCC(=O)O)C(=O)N[C@@H](CC(N)=O)C(=O)N[C@@H](Cc3cccnc3)C(=O)N(C)CC(N)=O)CCS(=O)(=O)CC2)C2(CC2)SSC12CC2 (stereo partly shown) [Compound 55] (Ac-[X1]HT[Trp(7-Me)]Q[X1][Phe(4-OC2H4NH2,2,3-(CH2)3)][2Nal][Thp(SO2)]EN[3Pal][Sar]-NH2; disulfide 1-6)",10.17
7,"COCCOCCOCCOCCOCCOCCOCCOCCOCCOCC(=O)N[C@@H]1C(=O)N[C@@H](Cc2c[nH]cn2)C(=O)N[C@@H]([C@@H](C)O)C(=O)N[C@@H](Cc2c[nH]c3c(C4CC4)cccc23)C(=O)N[C@@H](CCC(N)=O)C(=O)N[C@H](C(=O)N[C@@H](Cc2ccc(OCCN)c3c2CCC3)C(=O)N[C@@H](Cc2ccc3ccccc3c2)C(=O)NC2(C(=O)N[C@@H](CCC(=O)O)C(=O)N[C@@H](CC(N)=O)C(=O)N[C@@H](Cc3cccnc3)C(=O)N(C)CC(N)=O)CCS(=O)(=O)CC2)C(C)(C)SSC1(C)C [Compound 39] (X6-[Pen]HT[Trp(7-cPr)]Q[Pen][Phe(4-OC2H4NH2,2,3-(CH2)3)][2Nal][Thp(SO2)]EN[3Pal][Sar]-NH2; disulfide 1-6)",10.24
8,"C[C@@H](O)[C@@H]1NC(=O)[C@H](Cc2c[nH]cn2)NC(=O)[C@@H](NC(=O)COCCOCCNC(=O)COCCOCCNC(=O)CC[C@H](NC(=O)CCCCCCCCCCCCCCCCC(=O)O)C(=O)O)C(C)(C)SSC(C)(C)[C@@H](C(=O)N[C@@H](Cc2ccc(OCCN)c3c2CCC3)C(=O)N[C@@H](Cc2ccc3ccccc3c2)C(=O)NC2(C(=O)N[C@@H](CCC(=O)O)C(=O)N[C@@H](CC(N)=O)C(=O)N[C@@H](Cc3cccnc3)C(=O)N(C)CC(N)=O)CCS(=O)(=O)CC2)NC(=O)[C@H](CCC(N)=O)NC(=O)[C@H](Cc2c[nH]c3c(C4CC4)cccc23)NC1=O [Compound 20] ({C18 diacid-γGlu-AEEA-AEEA}-[Pen]HT[Trp(7-cPr)]Q[Pen][Phe(4-OC2H4NH2,2,3-(CH2)3)][2Nal][Thp(SO2)]EN[3Pal][Sar]-NH2; disulfide 1-6)",9.94
9,"CC(=O)N[C@H]1CSCc2ccccc2CSC[C@@H](C(=O)N[C@@H](Cc2ccc(OCCN)c3c2CCC3)C(=O)N[C@@H](Cc2ccc3ccccc3c2)C(=O)NC2(C(=O)N[C@@H](CCC(=O)O)C(=O)N[C@@H](CC(N)=O)C(=O)N[C@@H](Cc3cccnc3)C(=O)N(C)CC(N)=O)CCS(=O)(=O)CC2)NC(=O)[C@H](CCC(N)=O)NC(=O)[C@H](Cc2c[nH]c3c(C)cccc23)NC(=O)[C@H]([C@@H](C)O)NC(=O)[C@H](Cc2c[nH]cn2)NC1=O [Compound 31] (Ac-CHT[Trp(7-Me)]QC[Phe(4-OC2H4NH2,2,3-(CH2)3)][2Nal][Thp(SO2)]EN[3Pal][Sar]-NH2; linker 1-6 via oXylylene)",9.59
10,"CC(=O)N[C@H]1CSCc2cccc(c2)CSC[C@@H](C(=O)N[C@@H](Cc2ccc(OCCN)c3c2CCC3)C(=O)N[C@@H](Cc2ccc3ccccc3c2)C(=O)NC2(C(=O)N[C@@H](CCC(=O)O)C(=O)N[C@@H](CC(N)=O)C(=O)N[C@@H](Cc3cccnc3)C(=O)N(C)CC(N)=O)CCS(=O)(=O)CC2)NC(=O)[C@H](CCC(N)=O)NC(=O)[C@H](Cc2c[nH]c3c(C)cccc23)NC(=O)[C@H]([C@@H](C)O)NC(=O)[C@H](Cc2c[nH]cn2)NC1=O [Compound 30] (Ac-CHT[Trp(7-Me)]QC[Phe(4-OC2H4NH2,2,3-(CH2)3)][2Nal][Thp(SO2)]EN[3Pal][Sar]-NH2; linker 1-6 via mXylylene)",9.34
11,"CC(=O)N[C@H]1CSCc2nc3nc(n2)CSC[C@@H](C(=O)N[C@@H](CC(N)=O)C(=O)N[C@@H](Cc2cccnc2)C(=O)N(C)CC(N)=O)NC(=O)C2(CCS(=O)(=O)CC2)NC(=O)[C@H](Cc2ccc4ccccc4c2)NC(=O)[C@H](Cc2ccc(OCCN)c4c2CCC4)NC(=O)[C@H](CSC3)NC(=O)[C@H](CCC(N)=O)NC(=O)[C@H](Cc2c[nH]c3c(C)cccc23)NC(=O)[C@H]([C@@H](C)O)NC(=O)[C@H](Cc2c[nH]cn2)NC1=O [Compound 33] (Ac-CHT[Trp(7-Me)]QC[Phe(4-OC2H4NH2,2,3-(CH2)3)][2Nal][Thp(SO2)]CN[3Pal][Sar]-NH2; linker 1-6-10 via X3)",9.40
12,"CC(=O)N[C@@H]1C(=O)N[C@@H](Cc2c[nH]cn2)C(=O)N[C@@H]([C@@H](C)O)C(=O)N[C@@H](Cc2c[nH]c3c(C4CC4)cccc23)C(=O)N[C@@H](CCCCNC(=O)COCCOCCNC(=O)COCCOCCNC(=O)CC[C@H](NC(=O)CCCCC(=O)O)C(=O)O)C(=O)N[C@H](C(=O)N[C@@H](Cc2ccc(OCCN)c3c2CCC3)C(=O)N[C@@H](Cc2ccc3ccccc3c2)C(=O)NC2(C(=O)N[C@@H](CCC(=O)O)C(=O)N[C@@H](CC(N)=O)C(=O)N[C@@H](Cc3cccnc3)C(=O)N(C)CC(N)=O)CCS(=O)(=O)CC2)C(C)(C)SSC1(C)C [Compound 49] (Ac-[Pen]HT[Trp(7-cPr)]K([AEEA-AEEA-γGlu-Adipoyl])[Pen][Phe(4-OC2H4NH2,2,3-(CH2)3)][2Nal][Thp(SO2)]EN[3Pal][Sar]-NH2; disulfide 1-6)",10.17
13,CC(=O)N[C@H]1CNC(=O)NC[C@@H](C(=O)N[C@@H](Cc2ccc(OCCN)cc2)C(=O)N[C@@H](Cc2ccc3ccccc3c2)C(=O)NC2(C(=O)N[C@@H](CCC(=O)O)C(=O)N[C@@H](CC(N)=O)C(=O)N[C@@H](Cc3cccnc3)C(=O)N(C)CC(N)=O)CCOCC2)NC(=O)[C@H](CCC(N)=O)NC(=O)[C@H](Cc2c[nH]c3c(C)cccc23)NC(=O)[C@H]([C@@H](C)O)NC(=O)[C@H](Cc2c[nH]cn2)NC1=O [Compound 23] (Ac-[Dap]HT[Trp(7-Me)]Q[Dap][AEF][2Nal][Thp]EN[3Pal][Sar]-NH2; linker 1-6 via CO),9.79
